Measurements taken from publication PMC4585333, “Novel Regulator of Acylated Ghrelin, CF801, Reduces Weight Gain, Rebound Feeding after a Fast, and Adiposity in Mice” (Frontiers in Endocrinology, 2015).
“Also recorded” adds a separate entry of the source.

Tests used:
mouse GOAT (mGOAT) = biological target: T1, mouse GOAT (mGOAT) (Mus musculus, UniProt P0C7A3); experiment: Fluorescence-based GOAT activity assay, mouse GOAT; type: biochemical; details: concentrations up to 10 μM; Sf9 membranes, 1.5 μM GSSFLCAcDan, 500 μM octanoyl-CoA, 30 min pre-incubation, 1 h room temperature, pH 7.0, HPLC fluorescence, triplicate; F(3,8) = 0.139, p > 0.05
T1 construct: made in house; host or cells: Sf9 insect cells (membrane fraction)
T1 sequence (P0C7A3 1-435): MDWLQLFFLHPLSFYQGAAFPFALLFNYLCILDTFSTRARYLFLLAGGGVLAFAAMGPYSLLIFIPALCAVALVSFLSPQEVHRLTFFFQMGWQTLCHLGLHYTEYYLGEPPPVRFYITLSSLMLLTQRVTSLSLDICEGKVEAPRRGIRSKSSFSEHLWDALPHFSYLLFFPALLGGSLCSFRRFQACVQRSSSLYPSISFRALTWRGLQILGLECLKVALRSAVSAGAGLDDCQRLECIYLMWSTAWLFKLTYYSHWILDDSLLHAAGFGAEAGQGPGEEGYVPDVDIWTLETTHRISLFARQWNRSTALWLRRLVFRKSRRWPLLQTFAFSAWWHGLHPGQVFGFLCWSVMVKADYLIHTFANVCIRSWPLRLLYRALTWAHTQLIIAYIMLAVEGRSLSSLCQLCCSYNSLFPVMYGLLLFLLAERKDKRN
Excerpt: (§1) The effects of CF801 on GOAT activity were examined using a previously validated fluorescence-based assay, and in comparison with octanoyl-(Dap3)-ghrelin (1–5)–NH2, a well characterized GOAT inhibitor ([56], [63]). In this assay, membrane fractions from Sf9 insect cells were transfected to express either human (hGOAT) or mouse GOAT (mGOAT). Membranes fractions were thawed on ice and passed through an 18-gage needle 10 times enriched using a previously described method ([63]). […] Assays were analyzed by reverse phase HPLC with fluorescence detection. […] The trials were run in triplicate, with the % activity calculated as the integrated fluorescence intensity of the octanoylated product in the CF801 or octanoyl-(Dap3)-ghrelin (1–5)–NH2 run normalized by the same quantity for the vehicle-only reaction. […]
(§2) Figure 3 Percent activity of human GOAT (A) and mouse GOAT (B) (obtained from membrane fractions from Sf9 cells expressing hGOAT and mGOAT, resepectively) when exposed to CF801 and octanoyl-(Dap3)-ghrelin (1–5)–NH2 using a fluorescence-based microsomal assay. GSSFLCAcDan was used as an acylation target with fluorescence measured by reverse phase HPLC with fluorescence detection. […] All values are expressed as mean ± SEM. ***p < 0.001 compared to vehicle control.

human GOAT (hGOAT) = biological target: T2, human GOAT (hGOAT) (Homo sapiens, UniProt Q96T53); experiment: Fluorescence-based GOAT activity assay, human GOAT; type: biochemical; details: concentrations up to 10 μM; Sf9 membranes, 1.5 μM GSSFLCAcDan, 500 μM octanoyl-CoA, 30 min pre-incubation, 1 h room temperature, pH 7.0, HPLC fluorescence, triplicate; F(3,8) = 1.251, p > 0.05
T2 construct: made in house; host or cells: Sf9 insect cells (membrane fraction)
T2 sequence (Q96T53 1-435): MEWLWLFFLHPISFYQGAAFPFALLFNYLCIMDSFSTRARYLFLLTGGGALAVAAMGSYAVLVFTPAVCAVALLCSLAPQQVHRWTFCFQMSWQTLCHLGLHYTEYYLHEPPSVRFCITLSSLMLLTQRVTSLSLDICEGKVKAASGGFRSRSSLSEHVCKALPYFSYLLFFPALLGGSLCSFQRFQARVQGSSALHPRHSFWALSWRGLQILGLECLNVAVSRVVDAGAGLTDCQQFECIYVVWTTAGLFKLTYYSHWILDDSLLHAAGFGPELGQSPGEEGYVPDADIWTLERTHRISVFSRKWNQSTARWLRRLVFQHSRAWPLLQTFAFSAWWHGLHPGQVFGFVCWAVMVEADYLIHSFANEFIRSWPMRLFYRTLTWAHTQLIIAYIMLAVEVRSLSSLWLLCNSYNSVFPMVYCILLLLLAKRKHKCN
Excerpt: as §1, §2

## GSAFLSPEHQRK KRRQRRR-NH2 [CF801]
Mouse GOAT (mGOAT)
  mGOAT activity with CF801: no inhibition was seen; also recorded: no effect
Human GOAT (hGOAT)
  hGOAT activity with CF801: no inhibition was seen; also recorded: no effect
